Data published in patent publication US4596810A, “Emulsions of perfluoro octahydro quinolizines useful as blood substitutes” (The Green Cross Corporation, priority 1984, dated 1986).

Columns and labels:
Wister-strain male rats = assay: Acute Toxicity Test (intravenous); format: in vivo, rat; settings: 100 ml/kg-body weight, isotonized emulsion (Table 4), observed one week
Experimental: The acute toxicity test on the preparations of the present invention was carried out using the preparations of the present invention shown in Table 4 which had been physiologically isotonized. The test animals used were Wister-strain male rats (weighing 100-120 g).

[1] = Distribution of Perfluoro-compound in Organs (gas chromatography); format: in vivo, Wister-strain male rats; settings: for Residual Rate of perfluorobicyclo compound: 3 Months, 4 g/kg tail vein
Description: The content of perfluoro-4-methyloctanhydroquinolidine uptake in each organ 1, 2 and 4 weeks and 3 months after the administration are shown in Table 5.

Compound	death cases (Wister-strain male rats)	adverse influence on the liver or spleen organ ([1]; 4 g/kg into the tail vein, 3 months)	Residual Rate of perfluorobicyclo compound ([1]; Liver) [%]	Residual Rate of perfluorobicyclo compound ([1]; Spleen) [%]
FC(F)(F)C(F)(F)C1(F)N2C(F)(F)C(F)(F)C(F)(F)C(F)(F)C2(F)C(F)(F)C(F)(F)C1(F)F (centres unmarked) [perfluoro-4-ethyloctahydroquinolidine]	no death case	–	–	–
FC(F)(F)C1(F)N2C(F)(F)C(F)(F)C(F)(F)C(F)(F)C2(F)C(F)(F)C(F)(F)C1(F)F (centres unmarked) [perfluoro-4-methyloctahydroquinolidine]	no death case	no evidence of adverse influence on the liver or spleen organ	0.30	0.09
